Laboratory results from patent US20120220562A1, “Anti-Viral Compounds” (ABBOTT LABAORATORIES, priority 2011, published 2012).

Each molecule was assayed on HCV 1b-Con1 replicon (assay: HCV 1b-Con1 replicon assay in the presence of 5% FBS). Settings: Hepatitis C virus.
Format: cell-based

Compound | EC50 [nM]
COC(=O)N[C@H](C(=O)N1CCC[C@H]1c1nc2cc([C@H]3CC[C@H](c4ccc5[nH]c([C@@H]6CCCN6C(=O)[C@@H](NC(=O)OC)C(C)C)nc5c4)N3c3ccc(OC(F)(F)F)c(Cl)c3)ccc2[nH]1)C(C)C [Example 3.2, methyl {(2S)-1-[(2S)-2-{5-[(2R,5R)-1-[3-chloro-4-(trifluoromethoxy)phenyl]-5-{2-[(2S)-1-{(2S)-2-[(methoxycarbonyl)amino]-3-methylbutanoyl}pyrrolidin-2-yl]-1H-benzimidazol-5-yl}pyrrolidin-2-yl]-1H-benzimidazol-2-yl}pyrrolidin-1-yl]-3-methyl-1-oxobutan-2-yl}carbamate] | < 0.1
COC(=O)N[C@H](C(=O)N1CCC[C@H]1c1nc2cc([C@H]3CC[C@H](c4cc5nc([C@@H]6CCCN6C(=O)[C@@H](NC(=O)OC)C(C)C)[nH]c5cc4F)N3c3cc(F)c(N4CCC(c5ccccc5)CC4)c(F)c3)c(F)cc2[nH]1)C(C)C [Example 6.11, methyl {(2S)-1-[(2S)-2-{5-[(2R,5R)-1-[3,5-difluoro-4-(4-phenylpiperidin-1-yl)phenyl]-5-{6-fluoro-2-[(2S)-1-{(2S)-2-[(methoxycarbonyl)amino]-3-methylbutanoyl}pyrrolidin-2-yl]-1H-benzimidazol-5-yl}pyrrolidin-2-yl]-6-fluoro-1H-benzimidazol-2-yl}pyrrolidin-1-yl]-3-methyl-1-oxobutan-2-yl}carbamate] | < 0.1
COC(=O)N[C@H](C(=O)N1CCC[C@H]1c1nc2cc([C@H]3CC[C@H](c4ccc5[nH]c([C@@H]6CCCN6C(=O)[C@@H](NC(=O)OC)C(C)C)nc5c4)N3c3ccc(-c4ccccc4)cc3)ccc2[nH]1)C(C)C [Example 3.5, methyl {(2S)-1-[(2S)-2-{5-[(2R,5R)-1-(biphenyl-4-yl)-5-{2-[(2S)-1-{(2S)-2-[(methoxycarbonyl)amino]-3-methylbutanoyl}pyrrolidin-2-yl]-1H-benzimidazol-5-yl}pyrrolidin-2-yl]-1H-benzimidazol-2-yl}pyrrolidin-1-yl]-3-methyl-1-oxobutan-2-yl}carbamate] | < 0.1
COC(=O)N[C@H](C(=O)N1CCC[C@H]1c1nc2ccc([C@H]3CC[C@H](c4ccc5nc([C@@H]6CCCN6C(=O)[C@@H](NC(=O)OC)C(C)C)[nH]c5c4)N3c3ccc(OCC(F)F)cc3)cc2[nH]1)C(C)C [Example 4.11, methyl {(2S)-1-[(2S)-2-{6-[(2R,5R)-1-[4-(2,2-difluoroethoxy)phenyl]-5-{2-[(2S)-1-{(2S)-2-[(methoxycarbonyl)amino]-3-methylbutanoyl}pyrrolidin-2-yl]-1H-benzimidazol-6-yl}pyrrolidin-2-yl]-1H-benzimidazol-2-yl}pyrrolidin-1-yl]-3-methyl-1-oxobutan-2-yl}carbamate] | < 0.1
COC(=O)N[C@H](C(=O)N1CCC[C@H]1c1nc2cc([C@H]3CC[C@H](c4cc5nc([C@@H]6CCCN6C(=O)[C@@H](NC(=O)OC)[C@@H](C)OC)[nH]c5cc4F)N3c3cc(F)c(N4CCC(c5ccccc5)CC4)c(F)c3)c(F)cc2[nH]1)[C@@H](C)OC [Example 4.38, methyl {(2S,3R)-1-[(2S)-2-{5-[(2R,5R)-1-[3,5-difluoro-4-(4-phenylpiperidin-1-yl)phenyl]-5-(6-fluoro-2-{(2S)-1-[N-(methoxycarbonyl)-O-methyl-L-threonyl]pyrrolidin-2-yl}-1H-benzimidazol-5-yl)pyrrolidin-2-yl]-6-fluoro-1H-benzimidazol-2-yl}pyrrolidin-1-yl]-3-methoxy-1-oxobutan-2-yl}carbamate] | < 0.1
COC(=O)N[C@H](C(=O)N1[C@H](c2nc3cc([C@H]4CC[C@H](c5ccc6[nH]c([C@@H]7C[C@@H]8CCC[C@@H]8N7C(=O)[C@@H](NC(=O)OC)C7CCOCC7)nc6c5)N4c4cc(F)c(N5CCCCC5)c(F)c4)ccc3[nH]2)C[C@@H]2CCC[C@@H]21)C(C)C [Example 10.1, methyl [(1S)-2-[(2S,3aS,6aS)-2-{5-[(2R,5R)-1-[3,5-difluoro-4-(piperidin-1-yl)phenyl]-5-{2[(2S,3aS,6aS)-1-{(2S)-2-[(methoxycarbonyl)amino]-3-methylbutanoyl}octahydrocyclopenta[b]pyrrol-2-yl]-1H-benzimidazol-5-yl}pyrrolidin-2-yl]-1H-benzimidazol-2-yl}hexahydrocyclopenta[b]pyrrol-1(2H)-yl]-2-oxo-1-(tetrahydro-2H-pyran-4-yl)ethyl]carbamate] | < 0.1
COC(=O)NC(C(=O)N1CCC[C@H]1c1nc2cc([C@H]3CC[C@H](c4ccc5[nH]c([C@@H]6CCCN6C(=O)C(NC(=O)OC)C(C)C)nc5c4)N3c3cc(F)c(N4CCC(F)CC4)c(F)c3)ccc2[nH]1)C(C)C (stereo partly drawn) [Example 1.6, methyl {1-[(2S)-2-{5-[(2R,5R)-1-[3,5-difluoro-4-(4-fluoropiperidin-1-yl)phenyl]-5-{2-[(2S)-1-{2-[(methoxycarbonyl)amino]-3-methylbutanoyl}pyrrolidin-2-yl]-1H-benzimidazol-5-yl}pyrrolidin-2-yl]-1H-benzimidazol-2-yl}pyrrolidin-1-yl]-3-methyl-1-oxobutan-2-yl}carbamate] | < 0.1
COC(=O)N[C@H](C(=O)N1CCC[C@H]1c1nc2cc([C@H]3CC[C@@H](c4ccc5[nH]c([C@@H]6CCCN6C(=O)[C@@H](NC(=O)OC)C(C)C)nc5c4)N3c3cc(F)c(C(F)(F)F)cc3F)ccc2[nH]1)C(C)C [Example 1.3, methyl {(2S)-1-[(2S)-2-{5-[(2S,5R)-1-[2,5-difluoro-4-(trifluoromethyl)phenyl]-5-{2-[(2S)-1-{(2S)-2-[(methoxycarbonyl)amino]-3-methylbutanoyl}pyrrolidin-2-yl]-1H-benzimidazol-5-yl}pyrrolidin-2-yl]-1H-benzimidazol-2-yl}pyrrolidin-1-yl]-3-methyl-1-oxobutan-2-yl}carbamate] | < 0.1
COC(=O)N[C@H](C(=O)N1CCC[C@H]1c1nc2cc([C@H]3CC[C@H](c4ccc5[nH]c([C@@H]6CCCN6C(=O)[C@@H](NC(=O)OC)C(C)C)nc5c4)N3c3cc(F)c(N4CCOC(c5ccccc5)C4)c(F)c3)ccc2[nH]1)C(C)C (stereo partly drawn) [Example 4.49, methyl {(2S)-1-[(2S)-2-{5-[(2R,5R)-1-[3,5-difluoro-4-(2-phenylmorpholin-4-yl)phenyl]-5-{2-[(2S)-1-{(2S)-2-[(methoxycarbonyl)amino]-3-methylbutanoyl}pyrrolidin-2-yl]-1H-benzimidazol-5-yl}pyrrolidin-2-yl]-1H-benzimidazol-2-yl}pyrrolidin-1-yl]-3-methyl-1-oxobutan-2-yl}carbamate] | < 0.1
COC(=O)N[C@H](C(=O)N1CCC[C@H]1c1nc2cc([C@H]3CC[C@H](c4cc5nc([C@@H]6CCCN6C(=O)[C@@H](NC(=O)OC)C(C)C)[nH]c5cc4F)N3c3ccc(N4CCCCC4)c(F)c3)c(F)cc2[nH]1)C(C)C [Example 6.9, methyl {(2S)-1-[(2S)-2-(6-fluoro-5-{(2R,5R)-5-{6-fluoro-2-[(2S)-1-{(2S)-2-[(methoxycarbonyl)amino]-3-methylbutanoyl}pyrrolidin-2-yl]-1H-benzimidazol-5-yl}-1-[3-fluoro-4-(piperidin-1-yl)phenyl]pyrrolidin-2-yl}-1H-benzimidazol-2-yl)pyrrolidin-1-yl]-3-methyl-1-oxobutan-2-yl}carbamate] | < 0.1
COC(=O)N[C@H](C(=O)N1CCC[C@H]1c1nc2cc([C@H]3CC[C@H](c4cc5nc([C@@H]6CCCN6C(=O)[C@@H](NC(=O)OC)[C@@H](C)OC)[nH]c5cc4F)N3c3cc(F)c(N4CCC(C(C)(C)C)CC4)c(F)c3)c(F)cc2[nH]1)[C@@H](C)OC [Example 6.13, methyl {(2S,3R)-1-[(2S)-2-{5-[(2R,5R)-1-[4-(4-tert-butylpiperidin-1-yl)-3,5-difluorophenyl]-5-(6-fluoro-2-{(2S)-1-[N-(methoxycarbonyl)-O-methyl-L-threonyl]pyrrolidin-2-yl}-1H-benzimidazol-5-yl)pyrrolidin-2-yl]-6-fluoro-1H-benzimidazol-2-yl}pyrrolidin-1-yl]-3-methoxy-1-oxobutan-2-yl}carbamate] | < 0.1
COC(=O)N[C@H](C(=O)N1CCC[C@H]1c1nc2cc([C@H]3CC[C@H](c4cc5nc([C@@H]6CCCN6C(=O)[C@@H](NC(=O)OC)C(C)C)[nH]c5cc4F)N3c3cc(F)c(N4CCC(F)(c5ccccc5)CC4)c(F)c3)c(F)cc2[nH]1)C(C)C [Example 4.62, methyl {(2S)-1-[(2S)-2-{5-[(2R,5R)-1-[3,5-difluoro-4-(4-fluoro-4-phenylpiperidin-1-yl)phenyl]-5-{6-fluoro-2-[(2S)-1-{(2S)-2-[(methoxycarbonyl)amino]-3-methylbutanoyl}pyrrolidin-2-yl]-1H-benzimidazol-5-yl}pyrrolidin-2-yl]-6-fluoro-1H-benzimidazol-2-yl}pyrrolidin-1-yl]-3-methyl-1-oxobutan-2-yl}carbamate] | < 0.1
COC(=O)N[C@H](C(=O)N1CCC[C@H]1c1nc2ccc([C@H]3CC[C@H](c4ccc5nc([C@@H]6CCCN6C(=O)[C@@H](NC(=O)OC)C(C)C)[nH]c5c4)N3c3ccc(S(F)(F)(F)(F)F)cc3)cc2[nH]1)C(C)C [Example 4.13, methyl {(2S)-1-[(2S)-2-(6-{(2R,5R)-5-{2-[(2S)-1-{(2S)-2-[(methoxycarbonyl)amino]-3-methylbutanoyl}pyrrolidin-2-yl]-1H-benzimidazol-6-yl}-1-[4-(pentafluoro-lambda˜6˜-sulfanyl)phenyl]pyrrolidin-2-yl}-1H-benzimidazol-2-yl)pyrrolidin-1-yl]-3-methyl-1-oxobutan-2-yl}carbamate] | < 0.1
COC(=O)N[C@H](C(=O)N1CCC[C@H]1c1nc2cc([C@H]3CC[C@H](c4ccc5[nH]c(C6CCCC6)nc5c4)N3c3cc(F)c(N4CCC(c5ccccc5)CC4)c(F)c3)ccc2[nH]1)C(C)C [Example 11.2, methyl {(2S)-1-[(2S)-2-(5-{(2R,5R)-5-(2-cyclopentyl-1H-benzimidazol-5-yl)-1-[3,5-difluoro-4-(4-phenylpiperidin-1-yl)phenyl]pyrrolidin-2-yl}-1H-benzimidazol-2-yl)pyrrolidin-1-yl]-3-methyl-1-oxobutan-2-yl}carbamate] | < 0.1
COC(=O)N[C@H](C(=O)N1[C@H](c2nc3cc([C@H]4CC[C@H](c5ccc6[nH]c([C@@H]7C[C@@H]8CCC[C@@H]8N7C(=O)[C@@H](NC(=O)OC)[C@@H](C)OC)nc6c5)N4c4cc(F)c(N5CCCCC5)c(F)c4)ccc3[nH]2)C[C@@H]2CCC[C@@H]21)[C@@H](C)OC [Example 3.33] | < 0.1
